Results taken from patent EP3733658B1, “PRENYLATED BENZOPYRANES AS PPAR AGONISTS” (Universitat de València, priority 2017, dated 2019).

What was measured:
[1] = test system: white adipose tissue (WAT); assay: Treatment of ob/ob mice: white adipose tissue weight, histology and F4/80 immunohistochemistry; assay type: in vivo; conditions: oral, 4 days
Description: […]. […] […].
The samples of epididymal white adipose tissue (WAT) and liver were fixed in 4% paraformaldehyde, embedded in paraffin, sectioned with a microtome (Leica RM2245, Leica Biosystems, Wetzlar, Germany) and mounted in microscope slides Superfrost® plus (Thermo Fisher Scientific, Waltham, MA). Cross sections of WAT and liver were obtained. At least 10 slides were examined containing ≈ 4 cross sections of tissue (5 µm thickness) of each animal. Hematoxilin and eosin (H&E) staining was performed of the WAT and liver. Inflammatory infiltration in WAT was measured as previously described (Toyoda et al., 2008). After inactivation of the peroxidase (3% H2O2) and blocking with goat serum (Abcam, Cambridge, UK), cross sections of WAT were incubated overnight (4°C) with the following primary (mAb) monoclonal antibody: a rabbit anti-mouse F4/80 mAb (dilution 1:100, Abcam, Cambridge, UK). A specific marking was detected with a secondary goat HRP-conjugated anti-rabbit antibody (dilution 1:500, Dako, Copenhagen, Denmark). To confirm the specificity of the antibodies, control antibodies with the same isotope (Abcam, Cambridge, UK) or secondary antibody were used only as negative controls. […] Five fields of each WAT tissue section were photographed (Axio Observer A1, Carl Zeiss microscope, Thornwood, NY) digitalized and analyzed (Imaged software 1.48V, Bethesda, […]). Quantification was performed double blind with codes.

[2] = test system: liver; assay: Treatment of ob/ob mice: liver weight and liver triglycerides; assay type: in vivo; conditions: oral, 4 days
Description: 6 animals were used in each group in independent experiments (n=6).

[3] = Treatment of ob/ob mice: body weight gain and feed efficiency; conditions: oral, 4 days
Description: Protocols conforming to European Union guidelines for the care and protection of animals were approved by the Ethics Committee of the University of Valencia. All efforts were made to minimize the number of animals used and their suffering. ob/ob mice have a leptin deficiency, and are associated with hyperphagia and obesity, as well as hyperglycemia and hyperinsulinemia. This study used male ob/ob mice (C57BU6J) (Charles River laboratories, Chatillon-sur-Chalaronne, France).
The mice were housed in individual cages in a room with controlled temperature, humidity and light. […] The mice were allowed to acclimate for ten days prior to the study.
The control ob/ob mice were just administered with vehicle (physiological saline solution with HEC 1%). […] The compounds were prepared freshly each day in a 1% suspension of HEC for oral administration. Randomization was performed based on the glycaemia values on day 0. For the duration of the experiment the amount of food ingested and the body weight were determined daily for each mouse. Every day between 9:00 and 11:00 a.m. (prior to treatment) blood glucose levels were measured using (Contour next USB Blood glucose meter, BAYER, Basel, Switzerland). On the fifth day of the experiment the mice were anesthesized with isofluorane and blood was extracted by cardiac puncture. The blood was collected in tubes containing EDTA or heparin. Plasma samples were obtained by centrifugation and stored at -80°C. After obtaining the samples, the animals were sacrificed by cervical dislocation and subsequently different organs such as white adipose tissue (WAT) and liver were extracted for additional studies. The organs were weighed and frozen for subsequent RNA analysis and to conduct histological studies
The weight gain at the end of treatment was calculated (d5-d0) (Figure 14A).

[4] = test system: CXCL16; assay: Flow cytometry of TNFα-induced CXCL16 expression in HUVEC; assay type: cell-based, human; conditions: 3 µM, TNFα 20 ng/mL 24 h
Procedure: The cells were collected from the flasks using accutase (StemPro® Accutase® Cell Dissociation Reagent, ThermoFischer Scientific, Waltham, MA).
Then they were washed and incubated for 1 h with a APC-conjugated mAb antibody against human VCAM-1 (100 µg/mL; clone STA, BioLegend, San Diego, CA), a FITC- conjugated mAb against human ICAM-1 (400 µg/mL; clone HA58, BioLegend, San Diego, CA), a PE-conjugated mAb against human CX3CL1 (1.25 µg/mL; clone 51637, R&D Systems, Minneapolis, MN) or with a APC-conjugated mAb antibody against human CXCL16 (clone 256213, R&D Systems, Abingdon, UK), all at a dilution of 1:25 in 3% BSA/PBS. The samples were analyzed using a BD FACSVerse Flow Cytometer (BD Biosciences, San Jose, CA).

[5] = test system: human neutrophils; assay: Annexin V / propidium iodide flow cytometry of apoptosis and survival, neutrophils; assay type: cell-based; conditions: 24 h, compared to the vehicle
Procedure: In addition, the apoptosis and survival rate for human neutrophils and HUVEC was determined by double staining with annexin V and propidium iodide (PI) by flow cytometry.
Cytofluorometric analysis of apoptosis and survival. The kit FITC Annexin V Apoptosis Detection kit (BD Bioscience, San Jose, CA) was used. The staining protocol and all the reagents were supplied with the commercial kit. HUVEC were separated from the culture flasks by accutase (StemPro® Accutase® Cell dissociation reagent, Thermofischer Scientific Waltham, MA). Both cell types were incubated at 37°C for 24h in the presence or absence of the test compounds. Confluent HUVEC and freshly isolated neutrophils were washed, resuspended in binding buffer 1x (1 × 10^6 cells/mL) and stained with annexin V conjugated with FITC and propidium iodide (PI) as described in the manufacturer's instructions. The cells were analyzed in a BD FACSVerse Flow Cytometer (BD Biosciences, San Jose, CA) and differentiated as early apoptosis cells (annexin V^+ and PI^-), late apoptosis cells and/or necrotic cells (annexin V^+ and PI^+), and live cells (annexin V^- and PI^-).

SMILES: CCOC(=O)CCC(C)=CCCC1(C)CCc2cc(OCc3ccc(F)cc3)ccc2O1 (centres unmarked) [Compound 9]
- number of macrophages (F4/80) in WAT ([1]; 30 mg/Kg/d): significantly reduce
- weight of epididymal white adipose tissue (WAT) compared to the control group [1]: did not significantly increase
- mean area of the adipocytes in WAT ([1]; compound 9 10 and 30 mg/Kg/d (dose-dependent), rosiglitazone 10 mg/Kg/d): significant decrease
- triglyceride content in the liver compared to the ob/ob control group ([2]; 30 mg/Kg/d): did not accumulate significantly
- liver weight with respect to the ob/ob control group [2]: non-significant weight increase
- Weight gain (d5-d0) ([3]; 30 mg/Kg/d): 1.88 ± 0.52 g
- Feed efficiency (ratio of weight gain and food consumed) [3]: no observable differences
- weight gain compared to the control group ([3]; doses of 10 and 30 mg/Kg/d): did not cause significant differences
- expression of CXCL16 induced by TNFα [4]: significant decrease
- effect on neutrophil survival ([5]; 30 µM): 1.07%
- effect on cell survival ([5]; 100 µM): 1.55%
